Patent US6127355A (priority 1999, dated 2000)
Read-outs that look alike come from different tables or passages of the source.

Assays:
[1] = test system: one or more of the P388/0, HT-29 and A549 cell lines; experiment: cells; assay type: cell-based
Procedure: (§1) In this example, a series of in vitro assays were conducted to determine the IC50 for unmodified camptothecin, unmodified paclitaxel and several of the high molecular weight prodrugs prepared as set forth above.
(§2) All compounds were independently tested against one or more of the P388/0 (murine lymphoid neoplasm, Southern Research Institute), HT-29 (human colon carcinoma) and A549 (human lung adeno carcinoma) cell lines.
(§3) The P388/0 cells were grown in RPMI 1640 medium (Whittaker Bioproducts, Walkersville, Md.)+10% FBS (Hyclone Inc., Logan Utah). The HT-29 cells were grown in DMEM (GIBCOBRL)+10% FBS (Hyclone, Inc.). The A549 cells were grown in DMEM/F-12 (Biowhitaker)+10% FBS (Heat inactivated). Bioassays were performed in their respective media containing antibiotics and fungizone.
(§4) Camptothecin and paclitaxel were dissolved in DMSO and diluted to the appropriate concentration in culture media. The PEG-Camptothecin and PEG-paclitaxel prodrugs were dissolved in water and diluted to the appropriate concentrations in culture media.
(§5) The assays were performed in duplicate in 96-well microtiter cell culture plates. Two fold serial dilution of the compounds were done in the microtiter plates. Cells were detached by incubating with 0.1% Trypsin/Versene at 37°. Trypsin was inactivated by adding the appropriate media for each cell line containing 10% FBS. To each well of the microtiter plates, 10,000 cells were added. After three days, cell growth was measured by addition of a metabolic indicator dye, Alamar Blue, according to the manufacturer's protocol. The IC50 value for each test compound was determined and compared to the IC50 for the appropriate reference compound.
The IC50 values for some of the compounds formed in examples 47-53 were determined using the same process as that described above with regard to example 45 and compared to native camptothecin.

[2] = test system: P388/0 (murine lymphoid neoplasm) cells; experiment: cells; assay type: cell-based; settings: read-out: IC50 (nM) P388
Procedure: as §1, §2, §3, §4, §5
P-388 Murine leukemia cell line

[3] = test system: HT-29 (human colon carcinoma) cells; experiment: cells; assay type: cell-based; settings: read-out: IC50 (nM) HT-29
Procedure: as §1, §2, §3, §4, §5
HT29 Human colon carcinoma cell line

[4] = test system: murine leukemia cell line P388/0; experiment: Murine Leukemia Model (In vivo P388); set-up: species or system mouse; settings: ip, days 1-5; for Survival Rate %: survival at 40 days
Procedure: (§6) In this Example, the in vivo activity of some of the compounds prepared in accordance with the present invention was assessed using the Murine Leukemia Model and the Colorectal Xenograft model.
The compounds shown in the Table below were screened for in vivo activity against the murine leukemia cell line P388/0 (mouse, lymphoid neoplasm). The cell line was obtained from Southern Research Institute (Birmingham, Ala.) and grown in RPMI 1640 supplemented with 10% FBS. P388/0 cells were subcultured two times per week and log phase cultures (viability ≥95%/o) were used for all in vivo experiments. Female CD2F1 mice (Taconic Farms, Germantown, N.Y.) at 7-8 weeks of age were used for study. Following one week of acclimation, mice were implanted ip with P388/0 cells (5×10^5 cells/mouse) at designated day 0 (zero). The mice were randomly assigned to experimental groups (10-20 per group). The groups included Control groups and several which received one of the drugs or prodrugs. The mice were then dosed (500 μL, ip) for 5 consecutive days (days 1-5). Control groups received vehicle (intralipid or water). The mice were monitored for up to 40 days, and the treatment was evaluated and expressed as the percentage survival at 40 days.

[5] = test system: solid tumor HT-29 (human, colon adenocarcinoma); experiment: Colorectal Xenograft (In vivo HT-29); set-up: species or system human tumor in nu/nu mice; settings: total active dose 62.5 mg/kg, i.p.
Procedure: as §6
(§7) Female nu/nu mice (Harlan Sprague Dawley, Madison, Wis.), 18-24 g and 10-14 weeks old, at onset of treatment were used. The solid tumor HT-29 (human, colon adenocarcinoma) was obtained from the ATCC (HTB 38) and grown in DMEM supplemented with 10% FBS. Cells were subcultured once a week and for in vivo experiments viabilities were ≥90%. Mice were housed in microisolator filtration racks, and maintained with filtered acidified water and sterile laboratory chow ad libitum. Following one week of acclimation, tumors were established by injecting 1×10^6 harvested HT-29 tumor cells in a single subcutaneous site, on the flank of mice in the left axillary region. The tumor injection site was observed twice weekly and measured once palpable. The tumor volume for each mouse was determined by measuring two dimensions with calipers and calculated using the formula: tumor volume=(length×width^2)/2. When tumors reached the average volume of 300 mm^3, the mice were divided into their experimental groups. The non-Control groups received Camptothecin 2.5 mg/kg/day, the prodrugs being dosed on the basis of camptothecin content. The mice were sorted to evenly distribute tumor size, grouped into 5 mice/cage, and ear punched for permanent identification. Mice receiving drugs were treated i.p. 5 times a week, Monday through Friday for 5 weeks with 500 μL of test article. Mouse weight and tumor size were measured at the beginning of study and weekly through week 7. The overall growth of tumors was expressed as the percent change in tumor size calculated by subtracting mean initial tumor volume from mean tumor volume at the end of the treatment and dividing by mean initial tumor volume.

[6] = Colorectal Xenograft (In vivo HT-29); set-up: species or system human tumor in nu/nu mice; settings: mouse, in vivo, ip; week 5 (end of treatment); total active dose 62.5 mg/kg
Procedure: as §6, §7

[7] = cell line not stated, same process as example 45, read-out: IC50

Compound `CC[C@@]1(OC(=O)OCC(C)C)C(=O)OCc2c1cc1n(c2=O)Cc2cc3ccccc3nc2-1` [Compound 60, camptothecin-20-O-isobutyryl carbonate] has an IC50 ([1]; read-out: IC50) of 29 nM.

For “Camptothecin-20-O-ester of 2-PEG40k N-methylcarbamoyl Acetic Acid [Compound 5b]”, the IC50 [2] was 18 nM and the IC50 [3] was 153 nM.

For “Camptothecin-20-O-Glycinate PEG40kDa Carbamate Derivative [Compound 49]”, the IC50 [2] was 33 nM and the IC50 [3] was 40 nM.

With “Camptothecin-20-O-Glycinate PEG40kDa -Amide Derivative [Compound 48]” the “Survival Rate %” value ([4]; total active dose 16 mg/kg) was 80%, the “Tumor growth (%)” value ([5]; week 5 (end of treatment)) was -80% and the “Tumor growth (%)” value ([5]; week 7 (2 week post treatment)) was -96%.

In the case of `CC[C@@]1(O)C(=O)OCc2c1cc1n(c2=O)Cc2cc3ccccc3nc2-1` [Camptothecin, reference compound], the IC50 ([2]; Mus musculus, P388, 72 h) is reported as 5 nM, the IC50 ([3]; Homo sapiens, HT-29, 72 h) is reported as 21 nM and the “Survival Rate %” value ([4]; total active dose 16 mg/kg) is reported as 80%. The “Body weight change (%)” value ([5]; week 5 (end of treatment)) was -3%, the “Tumor growth (%)” value ([5]; week 5 (end of treatment)) was -20% and the “Body weight change (%)” value ([5]; week 7 (2 week post treatment)) was -3%. For the same compound, the “Tumor growth (%)” value ([5]; week 7 (2 week post treatment)) was 62%, the mortality at 840 h [6] was 50% and the IC50 [1] was 7 nM.

With “camptothecin-20-O-PEG5kDa carbamate [Compound 57]” the IC50 [1, 7] was 912 nM.

For `CC[C@@]1(OC(=O)ON2C(=O)CCC2=O)C(=O)OCc2c1cc1n(c2=O)Cc2cc3ccccc3nc2-1` [Compound 56, camptothecin-20-O-N-hydroxysuccinimidyl carbonate], the IC50 [1, 7] was 1030 nM.

“Bis-Camptothecin-N-Acetyl-PEG40kDa -20-O-Glycinate [Compound 37b]” gave an IC50 [2] of 49 nM and an IC50 [3] of 137 nM.

“Camptothecin-20-O-ester of 2-PEG40kDa Carbamoylacetic Acid [Compound 5a]” showed an IC50 ([2]; P388 murine leukemia cell line, three days) of 7 nM and an IC50 ([3]; HT-29 human colon carcinoma cell line, three days) of 30 nM.

Compound “Bis-Camptothecin-N-PEG40kDa -20-O-Glycinate [Compound 37a]” has an IC50 [2] of 24 nM and an IC50 [3] of 110 nM.

With “Camptothecin-20-O-ester of PEG20kDa diacid” the “50% survival” value ([4]; total active dose 11.4 mg/kg) was 21 days and the “Survival Rate %” value ([4]; total active dose 11.4 mg/kg) was 10%.

With `CC[C@@]1(OC(=O)OC)C(=O)OCc2c1cc1n(c2=O)Cc2cc3ccccc3nc2-1` [Compound 59, camptothecin-20-O-methyl carbonate] the IC50 [1, 7] was 11 nM.

Compound `CC[C@@]1(OC(=O)n2ccnc2)C(=O)OCc2c1cc1n(c2=O)Cc2cc3ccccc3nc2-1` [Compound 54, camptothecin-20-O-carbonylimidazolyl carbonate] has an IC50 ([1]; read-out: IC50) of 69 nM.

Compound `CC[C@@]1(OC(=O)Oc2ccc([N+](=O)[O-])cc2)C(=O)OCc2c1cc1n(c2=O)Cc2cc3ccccc3nc2-1` [Compound 55, camptothecin-20-O-paranitrophenyl carbonate] has an IC50 [1, 7] of 365 nM.

`CC[C@@]1(O)C(=O)OCc2c1cc1n(c2=O)Cc2cc3c(CN(C)C)c(O)ccc3nc2-1` [Topotecan, reference compound] showed an IC50 ([2]; Mus musculus, 72 h, P388 murine leukemia cell line, three days) of 29 nM and an IC50 ([3]; 72 h, HT-29 human colon carcinoma cell line, three days) of 99 nM.
